From ChEMBL document CHEMBL2331503, “Hx-amides: DNA sequence recognition by the fluorescent Hx (p-anisylbenzimidazole)•pyrrole and Hx•imidazole pairings” (Bioorg Med Chem Lett, 2013) come the findings set out here.

A word on the ΔTm: it is the change in melting temperature against a reference sample.

Molecules are shown by their SMILES. Activity calls are given as the source filed them. No cut-off for these calls is given here.

Assay [1] is described as follows: Inhibition of 5'-ACCGGT cognate sequence containing 5'-32P labeled 131 base pair DNA (unknown origin) cleavage at 10 to 30 uM DNase I footprinting method.
Assay [2] in a line: Binding affinity to 5'-AGCGCT DNA by surface plasmon resonance assay. In general terms: SPR reads the build-up and loss of mass on a sensor chip optically.
The nature of assay [3]: Binding affinity to 5'-ACCGGT DNA assessed as change in melting temperature at 3 mol equivalent of compound-DNA.
Assay [4] can be described thus: Binding affinity to cognate sequence of 5'-ACCGGT DNA by surface plasmon resonance assay.
The nature of assay [5]: Binding affinity to cognate sequence of 5'-ACCGGT DNA at 1 mol equivalent by circular dichroism analysis. For orientation: Circular dichroism is the unequal absorption of left and right circularly polarised light.
Assay [6] in a line: Binding affinity to 5'-AAATTT DNA assessed as change in melting temperature at 3 mol equivalent of compound-DNA.
The nature of assay [7]: Binding affinity to 5'-ATGCAT DNA by surface plasmon resonance assay.
Assay [8] in a line: Binding affinity to 5'-ACGCGT DNA assessed as change in melting temperature at 3 mol equivalent of compound-DNA.

Turning to `COc1ccc(-c2nc3ccc(C(=O)Nc4cn(C)c(C(=O)Nc5cn(C)c(C(=O)NCCN(C)C)n5)n4)cc3[nH]2)cc1`, the inhibition entry in assay [1] is “Active”. Also, the K was determined as 5 ×10⁵ /M in assay [2], 2 ×10⁶ /M in assay [4] and 1 ×10⁶ /M in assay [7]. Moreover, the shift in melting temperature (ΔTm) in assay [3] turned out to be 5 °C; in assay [6] it was 5 °C; in assay [8], 0 °C. The result in assay [5] was Active.
